Assay results published in US20190083477A1, “Cyclooxygenase Inhibitor and Calcium Channel Antagonist Compositions and Methods for Use in Urological Procedures” (Omeros Corporation, priority 2005, published 2019).
Each block holds one compound with its values, some of them ahead of it. Ends that are not written are not given here.

Tests used:
[1] = test system: bradykinin-induced PGE2 in rat bladder tissue strips; assay: PGE2 release from urinary bladder strips, enzyme immunoassay (Example I); format: cell-based; settings: 10 min, 10 minutes of bradykinin challenge, read-out: BK-induced PGE2 IC50
[2] = test system: rat bladder smooth muscle strips; assay: tissue or blood; settings: read-out: BK-induced Contraction IC50
L-type channel = settings: cited from earlier work
[3] = test system: rat bladder smooth muscle strips
rat bladder = assay: Acetic-acid overactive bladder model, intravesical delivery, cystometry (Example V); format: in vivo
Procedure: In this model, acute inflammation of the bladder is produced by using 0.2% acetic acid in saline as the bladder perfusion fluid and cystometry under anesthesia is performed after a recovery period from the surgical procedure.
The animals were anesthesized and bladder catheters were surgically implanted to allow irrigation of the test agents. The following cystometry parameters were monitored: intercontraction interval (ICI), trigger pressure (TP), micturition pressure (MP) and micturition volume (MV) using a Med Associates Cystometry Station and software program. […] Following the saline period, the rat bladder was infused with test agent in saline containing 0.2% acetic acid for 20 min followed by the collection of 7 representative ICI intervals for analysis.
Five to seven animals were normally tested in each group. Acidified saline served as the control. All infusion solutions were prepared fresh on the day of the experiment before use.

rat urinary bladder = assay: In vivo rat cystometry model, 0.2% acetic acid infusion (Example I); settings: 10 mg/kg intravenous
Procedure: The rats were anesthetized with urethane at 1.2 g/kg i.p. in 5 ml/kg. A polyethylene catheter (PE50) was implanted into the bladder for saline or acetic acid infusion through a 3-way stopcock. A pressure transducer was connected for measurements of intravesical pressure. Warm (37° C.) saline was infused into the bladder at a constant rate of […] (1 ml/hour) until cystometry became stable (no less than 60 minutes). Thereafter, 0.2% acetic acid was infused into the urinary bladder. Aspirin (10 mg/kg i.v.) and vehicle were administered intravenously via a PE-10 catheter in the femoral vein at 5 minutes after infusion of acetic acid was started and at the end of first micturition cycle. Dunnett's test was applied for comparison between the time before and after test substance or vehicle treatment. To ascertain differences between the test substance and the vehicle control group, an unpaired Student's t test was used. Differences are considered significant at […].

[4] = test system: bradykinin-stimulated PGE2 release from rat bladder tissue strips; assay: tissue or blood; settings: read-out: inhibition of bradykinin-evoked PGE2 release
[5] = test system: rat bladder tissue strips; assay: tissue or blood; settings: read-out: inhibition of contractile response to bradykinin
COX = settings: read-out: IC50 in a non-selective COX assay; cited from earlier work
[6] = in irrigation buffer, 0.2% acetic acid, female rats

Sequence of L-type channel (Q13936 whole entry): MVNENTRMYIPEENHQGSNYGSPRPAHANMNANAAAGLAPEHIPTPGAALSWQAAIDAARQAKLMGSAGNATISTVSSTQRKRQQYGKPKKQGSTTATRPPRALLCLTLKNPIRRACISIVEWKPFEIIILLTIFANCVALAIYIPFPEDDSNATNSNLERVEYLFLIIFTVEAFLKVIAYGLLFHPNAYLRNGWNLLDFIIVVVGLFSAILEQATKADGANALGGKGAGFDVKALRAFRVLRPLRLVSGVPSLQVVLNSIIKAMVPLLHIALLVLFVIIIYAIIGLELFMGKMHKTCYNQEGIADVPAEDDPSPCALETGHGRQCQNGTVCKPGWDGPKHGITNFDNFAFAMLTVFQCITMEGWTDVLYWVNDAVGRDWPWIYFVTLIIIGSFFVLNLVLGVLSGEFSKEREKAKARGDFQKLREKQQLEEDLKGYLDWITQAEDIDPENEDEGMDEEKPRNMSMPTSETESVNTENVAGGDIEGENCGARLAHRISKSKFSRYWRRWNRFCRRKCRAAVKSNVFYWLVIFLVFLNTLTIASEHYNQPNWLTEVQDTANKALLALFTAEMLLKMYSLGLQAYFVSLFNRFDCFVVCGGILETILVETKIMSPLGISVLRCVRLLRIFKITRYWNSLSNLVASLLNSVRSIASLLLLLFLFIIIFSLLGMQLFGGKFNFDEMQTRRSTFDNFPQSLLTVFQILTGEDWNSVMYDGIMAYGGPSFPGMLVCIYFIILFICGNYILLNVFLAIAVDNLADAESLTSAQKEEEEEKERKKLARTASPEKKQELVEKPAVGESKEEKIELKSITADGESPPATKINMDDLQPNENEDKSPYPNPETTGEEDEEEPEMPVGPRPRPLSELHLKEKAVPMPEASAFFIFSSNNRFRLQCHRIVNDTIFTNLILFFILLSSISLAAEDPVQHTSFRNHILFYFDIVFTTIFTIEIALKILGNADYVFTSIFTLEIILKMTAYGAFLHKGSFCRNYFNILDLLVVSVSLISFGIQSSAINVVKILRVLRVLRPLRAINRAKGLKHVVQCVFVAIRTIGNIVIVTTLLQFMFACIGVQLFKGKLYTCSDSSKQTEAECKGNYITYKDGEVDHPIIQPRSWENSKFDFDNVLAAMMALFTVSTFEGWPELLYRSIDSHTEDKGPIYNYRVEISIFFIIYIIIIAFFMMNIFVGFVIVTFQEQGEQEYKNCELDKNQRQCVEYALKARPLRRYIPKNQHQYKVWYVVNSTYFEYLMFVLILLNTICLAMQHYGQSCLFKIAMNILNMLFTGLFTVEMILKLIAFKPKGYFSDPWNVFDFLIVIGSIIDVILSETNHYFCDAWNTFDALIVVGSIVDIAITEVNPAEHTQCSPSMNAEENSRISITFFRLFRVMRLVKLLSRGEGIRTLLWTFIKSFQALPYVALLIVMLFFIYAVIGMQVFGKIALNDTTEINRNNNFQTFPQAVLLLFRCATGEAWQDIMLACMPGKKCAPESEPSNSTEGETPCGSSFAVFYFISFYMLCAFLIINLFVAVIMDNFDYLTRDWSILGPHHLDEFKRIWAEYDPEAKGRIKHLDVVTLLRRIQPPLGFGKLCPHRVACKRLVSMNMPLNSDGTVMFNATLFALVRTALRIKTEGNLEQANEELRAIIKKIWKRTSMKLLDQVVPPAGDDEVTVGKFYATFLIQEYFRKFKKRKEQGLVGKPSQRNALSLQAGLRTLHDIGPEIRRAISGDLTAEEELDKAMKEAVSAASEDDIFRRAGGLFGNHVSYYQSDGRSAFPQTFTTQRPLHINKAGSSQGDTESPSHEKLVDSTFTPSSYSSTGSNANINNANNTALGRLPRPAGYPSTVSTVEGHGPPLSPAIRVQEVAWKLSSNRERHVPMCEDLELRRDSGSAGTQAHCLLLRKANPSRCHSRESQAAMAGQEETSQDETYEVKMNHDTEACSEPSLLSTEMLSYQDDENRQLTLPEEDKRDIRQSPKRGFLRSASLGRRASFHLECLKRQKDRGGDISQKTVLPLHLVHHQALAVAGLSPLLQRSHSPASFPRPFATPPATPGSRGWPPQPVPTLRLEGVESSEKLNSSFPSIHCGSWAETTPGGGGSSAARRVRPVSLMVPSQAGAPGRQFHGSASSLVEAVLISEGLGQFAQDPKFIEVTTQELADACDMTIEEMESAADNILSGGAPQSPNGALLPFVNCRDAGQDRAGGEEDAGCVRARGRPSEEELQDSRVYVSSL

IC50 [1]: 1.65 µM
IC50 [2]: 24.8 µM
Compound: CC(C(=O)O)c1ccc(-c2ccccc2)c(F)c1 (stereo not shown) [Flurbiprofen]

Compound: COC(=O)C1=C(C)NC(C)=C(C(=O)OC)C1c1ccccc1[N+](=O)[O-] [Nifedipine, 1,4-dihydro-2,6-dimethyl-4-(2-nitrophenyl)-3,5-pyridinedicarboxylic acid dimethyl ester]
onset of action (L-type channel): less than 10 minutes
type of antagonism upon bradykinin-induced contractile responses ([3]; single agent, 10 min incubation): noncompetitive
concentration of maximal effects on the shortening of the ICI (rat bladder; [6]): 1 µM
ICI plateau at higher concentrations (rat bladder; nifedipine above 1 μM in irrigation buffer): approximately 75 % of baseline

Compound: CC(=O)Oc1ccccc1C(=O)O [aspirin]
Threshold pressure (rat urinary bladder): not affected
bladder capacity (rat urinary bladder): parallel changes
inhibition of the acetic acid induced reduction in the intercontraction interval (ICI) (rat urinary bladder): gradual time-dependent inhibition
micturition pressure (rat urinary bladder): not affected

IC50 [1]: > 25 µM
IC50 [2]: > 25 µM
Compound: CS(=O)(=O)c1ccc(-n2nc(C(F)(F)F)cc2-c2ccc(F)cc2)cc1 [SC-58125, 1-[(4-methysufonyl)phenyl]-3-tri-fluoromethyl-5-(4-fluorophenyl)pyrazole]

IC50 [1]: > 25 µM
IC50 [2]: > 25 µM
Compound: CS(=O)(=O)c1ccc(-c2cc(Br)sc2-c2ccc(F)cc2)cc1 [DUP-697, 5-bromo-2-(4-fluorophenyl)-3-(4-methylsulfonyl) thiophene]

Compound: CC(C(=O)O)c1cccc(C(=O)c2ccccc2)c1 (stereo not drawn) [Ketoprofen, 3-benzoyl-α-methylbenzeneacetic acid]
inhibition at 10 µM [4]: 81%
inhibition at 10 µM [5]: 67%
concentration giving complete inhibition of the shortening of the ICI (rat bladder; [6]): approximately 3 μM
IC50 (COX): 0.004 to 0.008 µM

Compound: RPPGFSPFR [bradykinin]
EC50 ([3]; read-out: EC50, cumulative concentration-response curve (contraction), agonist on bladder strips of normal animals): 0.0085 µM
